Results reported in patent publication EP0057900B1, “Animal feed additive for improving growth” (Dr. Karl Thomae GmbH, priority 1981, dated 1982).
Counter-ions that a name gives are not always drawn.

What was measured:
[1] = Acute toxicity in mice after i.v. administration; assay type: in vivo, Mäusen; conditions: mouse, in vivo, iv, mean weight 22 g, i. v. in physiological saline, dose at which 50% of animals died, observation time 14 days, Litchfield and Wilcoxon
From the text: (§1) Die akute Toxizität der zu untersuchenden Substanzen, welche in physiologischer Kochsalzlösung gelöst wurden, wurde an Mäusen mit einem durchschnittlichen Gewicht von 22 g nach i. v. Gabe (0.1 mt/10 g) bestimmt. Es wurde die LD50, die Dosis bei welcher 50% der Tiere nach einer Beobachtungszeit von 14 Tagen verstarben, nach der Methode von Litchfield und Wilcoxon (J. Pharmacol. exp. Ther. 96, 99-113 (1949)) berechnet.

[2] = test system: Fettsäuregehalt des Blutes; assay: Lipolytic effect in rabbits (blood fatty acid content, method of Duncombe); assay type: in vivo, Kaninchen; conditions: Oryctolagus cuniculus, iv; male and female rabbits, mean weight 2,3 kg; i. v. in physiological saline; dose causing a 50% reduction of blood fatty acid content; calculated according to Fieler; read-out: ED50 µg/kg i. v.
From the text: Beispielsweise wurde die lipolytische Wirkung der Verbindungen • A = 1-(4-Amino-3-cyan-5-fluor-phenyl)-2-tert.butylamino-äthanol-hydrochlorid, • B = 1-(4-Amino-3-cyan-5-fluor-phenyl)-2-isopropylamino-äthanol-hydrochforid, • C = 1-(4-Amino-3-cyan-5-fluor-phenyl)-2-cyclobutylamino-äthanol-hydrochlorid, • D = 1-(4-Amino-3-chlor-5-cyan-phenyl)-2-isopropylamino-äthanol-hydrochlorid, • E = 1-(4-Amino-3-chlor-5-cyan-phenyl)-2-cyclobutylamino-äthanol-hydrochlorid, • F = 1-(4-Amino-3-chlor-5-cyan-phenyl)-2-cyclopentylamino-äthanol-hydrochlorid und • G = 1-(4-Amino-3-chlor-5-trifluormethylphenyl)-2-cyclobutylamino-äthanor-hydrochlorid
an Kaninchen wie folgt geprüft:
Die zu untersuchenden Substanzen wurden männlichen und weiblichen Kaninchen mit einem durchschnittlichen Gewicht von 2,3 kg, gelöst in physiologischer Kochsalzlösung i. v. injiziert (0,2 mg/kg). Der Fettsäuregehalt des Blutes wurde nach der Methode von Duncombe (Biochem. J. 88, 7-10 (1963)) bestimmt. Es wurde die EDso, die Dosis, die eine 50%ige Senkung des Fettsäuregehaltes bewirkt, nach Fieler (Quart. J. Pharm. Pharmacol. 17, 117―123 (1964)) berechnet.

Mäusen = assay: Acute toxicity in mice after i.v. administration; assay type: in vivo; conditions: mean weight 22 g, i. v. in physiological saline, dose at which 50% of animals died, observation time 14 days, Litchfield and Wilcoxon
From the text: as §1

SMILES | LD50 at 336 h [1] [mg/kg] | ED50 [2] [µg/kg] | LD50 mg/kg i. v. (Mäusen)
CC(C)(C)NCC(O)c1cc(F)c(N)c(C#N)c1 (stereo not shown) [A, 1-(4-Amino-3-cyan-5-fluor-phenyl)-2-tert.butylamino-äthanol-hydrochlorid] | 73.6 |  | 
N#Cc1cc(C(O)CNC2CCCC2)cc(Cl)c1N (stereo not shown) [F, 1-(4-Amino-3-chlor-5-cyan-phenyl)-2-cyclopentylamino-äthanol-hydrochlorid] |  | 0.16 | 39,1 mg/kg
CC(C)NCC(O)c1cc(F)c(N)c(C#N)c1 (stereo not shown) [B, 1-(4-Amino-3-cyan-5-fluor-phenyl)-2-isopropylamino-äthanol-hydrochforid] |  |  | 66,4 mg/kg
N#Cc1cc(C(O)CNC2CCC2)cc(Cl)c1N (stereo not shown) [Verbindung E, 1-(4-Amino-3-chlor-5-cyan-phenyl)-2-cyclobutylamino-äthanol-hydrochlorid] | 43.9 |  | 
Nc1c(Cl)cc(C(O)CNC2CCC2)cc1C(F)(F)F (stereo not shown) [G, 1-(4-Amino-3-chlor-5-trifluormethylphenyl)-2-cyclobutylamino-äthanor-hydrochlorid] |  | 0.46 | 
CC(C)NCC(O)c1cc(Cl)c(N)c(C#N)c1 (stereo not shown) [D, 1-(4-Amino-3-chlor-5-cyan-phenyl)-2-isopropylamino-äthanol-hydrochlorid] | 81 |  | 
